According to a flash point compilation (Sun et al. 2020):
Structures can show the parent of a compound that is named as a salt.

| Compound | flash point [°C] |
| --- | --- |
| CCCCOCCOCCOCCOCCO [2-[2-[2-(2-butoxyethoxy)ethoxy]ethoxy]ethanol] | 166.00 |
| COCCOCCOCCOCCO [2-[2-[2-(2-methoxyethoxy)ethoxy]ethoxy]ethanol] | 161.00 |
| CN(CCO)CCO [2-[2-hydroxyethyl(methyl)amino]ethanol] | 127.00 |
| Cc1ccccc1OCC1CO1 (centres undefined) [2-[(2-methylphenoxy)methyl]oxirane] | 93.00 |
| CC(C)(C)OCC1CO1 (centres undefined) [2-[(2-methylpropan-2-yl)oxymethyl]oxirane] | 43.00 |
| c1cc(OCC2CO2)cc(OCC2CO2)c1 (centres undefined) [2-[[3-(oxiran-2-ylmethoxy)phenoxy]methyl]oxirane] | 177.00 |
| CC(=O)Oc1ccccc1C(=O)O [2-acetyloxybenzoic acid] | 250.00 |
| CC(=O)OCC(C)OC(C)=O (centres undefined) [2-acetyloxypropyl acetate] | 86.00 |
| Nc1ccccc1C(=O)O [2-aminobenzoic acid] | 171.00 |
| NCCO [2-aminoethanol] | 93.00 |
| Nc1ccccc1O [2-aminophenol] | 168.00 |
| Oc1ccc(Cl)cc1Cc1ccccc1 [2-benzyl-4-chlorophenol] | 188.00 |
| O=C(O)C(Cl)Br (centres undefined) [2-bromo-2-chloroacetic acid] | 110.00 |
| CC(C)(C)Br [2-bromo-2-methylpropane] | -16.00 |
| O=[N+]([O-])C(Br)(CO)CO [2-bromo-2-nitropropane-1,3-diol] | 167.00 |
| O=C(O)CBr [2-bromoacetic acid] | 113.00 |
| CCC(C)Br (centres undefined) [2-bromobutane] | 21.00 |
| CCCC(C)Br (centres undefined) [2-bromopentane] | 21.00 |
| CCCCOCCOC(C)=O [2-butoxyethyl acetate] | 71.00 |
| O=C(CCl)c1ccccc1 [2-chloro-1-phenylethanone] | 118.00 |
| CC(C)(Cl)[N+](=O)[O-] [2-chloro-2-nitropropane] | 57.00 |
| C=CCN(CC=C)C(=O)CCl [2-chloro-N,N-bis(prop-2-enyl)acetamide] | 186.00 |
| O=C(O)CCl [2-chloroacetic acid] | 150.00 |
| Nc1ccccc1Cl [2-chloroaniline] | 98.00 |
| C=C(Cl)C#N [2-chloroprop-2-enenitrile] | 7.00 |

| Compound | flash point [°C] |
| --- | --- |
| CC(C)Cl [2-chloropropane] | -32.00 |
| CC(Cl)C(=O)O (centres undefined) [2-chloropropanoic acid] | 107.00 |
| C=CC(=O)OCCC#N [2-cyanoethyl prop-2-enoate] | 124.00 |
| O=C1c2ccccc2C(=O)N1SC1CCCCC1 [2-cyclohexylsulfanylisoindole-1,3-dione] | 177.00 |
| CNC(=O)CSP(=S)(OC)OC [2-dimethoxyphosphinothioylsulfanyl-N-methylacetamide] | 51.00 |
| CCCCCCCCCCCCc1ccccc1O [2-dodecylphenol] | 163.00 |
| C=CC1CO1 (centres undefined) [2-ethenyloxirane] | -46.00 |
| CCOC(C)(C)C [2-ethoxy-2-methylpropane] | -19.00 |
| CCOCC(=O)O [2-ethoxyacetic acid] | 98.00 |
| CCC(CO)(CO)CO [2-ethyl-2-(hydroxymethyl)propane-1,3-diol] | 172.00 |
| CCc1ccccc1N [2-ethylaniline] | 85.00 |
| C=CC(=O)OCC(CC)CC [2-ethylbutyl prop-2-enoate] | 52.00 |
| CCCC=C(C=O)CC [2-ethylhex-2-enal] | 68.00 |
| C=C(C)C(=O)OCC(CC)CCCC (centres undefined) [2-ethylhexyl 2-methylprop-2-enoate] | 92.00 |
| CCCCC(CC)COC(C)=O (centres undefined) [2-ethylhexyl acetate] | 88.00 |
| CCc1ccc2ccccc2c1 [2-ethylnaphthalene] | 104.00 |
| CCc1ccccc1O [2-ethylphenol] | 78.00 |
| CCC(C(=O)O)C(=O)O [2-ethylpropanedioic acid] | 85.00 |
| O=C(Cl)c1ccccc1F [2-fluorobenzoyl chloride] | 82.00 |
| O=COCCOC=O [2-formyloxyethyl formate] | 93.00 |
| CC(C)(C)OO [2-hydroperoxy-2-methylpropane] | 27.00 |
| CC(C)(OO)c1ccccc1 [2-hydroperoxypropan-2-ylbenzene] | 57.00 |
| N#CC(O)c1ccccc1 (centres undefined) [2-hydroxy-2-phenylacetonitrile] | 82.00 |
| CSCCC(O)C(=O)O (centres undefined) [2-hydroxy-4-methylsulfanylbutanoic acid] | 121.00 |
| O=Cc1ccccc1O [2-hydroxybenzaldehyde] | 78.00 |

| Compound | flash point [°C] |
| --- | --- |
| O=C(O)c1ccccc1O [2-hydroxybenzoic acid] | 157.00 |
| C=C(C)C(=O)OCCO [2-hydroxyethyl 2-methylprop-2-enoate] | 97.00 |
| C=CC(=O)OCCO [2-hydroxyethyl prop-2-enoate] | 101.00 |
| C=CC(=O)OCC(C)O (centres undefined) [2-hydroxypropyl prop-2-enoate] | 65.00 |
| CCC(C)(C)OC [2-methoxy-2-methylbutane] | -7.00 |
| COC(C)(C)C [2-methoxy-2-methylpropane] | -26.00 |
| C=CCc1ccc(O)c(OC)c1 [2-methoxy-4-prop-2-enylphenol] | 104.00 |
| COc1ccccc1N [2-methoxyaniline] | 99.00 |
| C=CC(=O)OCCOC [2-methoxyethyl prop-2-enoate] | 82.00 |
| CC(C=O)=Cc1ccccc1 [2-methyl-3-phenylprop-2-enal] | 79.00 |
| Cc1ccc(C(C)C)cc1O [2-methyl-5-propan-2-ylphenol] | 100.00 |
| CC(C)CN(CC(C)C)CC(C)C [2-methyl-N,N-bis(2-methylpropyl)propan-1-amine] | 51.00 |
| CC1CN1 (centres undefined) [2-methylaziridine] | -4.00 |
| Cc1ccccc1C=O [2-methylbenzaldehyde] | 67.00 |
| C#CC(C)(C)O [2-methylbut-3-yn-2-ol] | 25.00 |
| CCC(C)C [2-methylbutane] | -57.00 |
| CC1CCCCC1O (centres undefined) [2-methylcyclohexan-1-ol] | 59.00 |
| CCCCCC(C)(C)S [2-methylheptane-2-thiol] | 46.00 |
| Cc1ccc2ccccc2c1 [2-methylnaphthalene] | 98.00 |
| CC(C#N)CCC#N (centres undefined) [2-methylpentanedinitrile] | 126.00 |
| Cc1ccccc1O [2-methylphenol] | 81.00 |
| C=C(C)CO [2-methylprop-2-en-1-ol] | 33.00 |
| C=C(C)C#N [2-methylprop-2-enenitrile] | 13.00 |
| CC(C)C=O [2-methylpropanal] | -40.00 |
